According to EP1366764A1, “Method of screening for calcium receptor-active molecules” (The Brigham & Women's Hospital, Inc., priority 1993, dated 1994):
Read-outs that look alike come from different tables or passages of the source. Values belong to the compound of their own block, whether it stands above or below them.

Key:
[1] = Hypocalcemic activity in vivo (serum or whole blood ionized Ca2+, PTH) in rats
[2] = system: rat osteoclasts; experiment: Measurement of [Ca2+]i in single rat osteoclasts (indo-1); assay type: cell-based; details: for EC50: Osteoclast
[3] = Serum ionized Ca2+ in the 5/6 nephrectomized rat (model of secondary hyperparathyroidism); assay type: in vivo, rats; details: 10 mg/kg i.p.
Source text: An accepted and widely used animal model of secondary hyperparathyroidism arising from chronic renal failure is the 5/6 nephrectomized rat. Animals receiving such surgery become initially hypocalcemic and, to maintain serum Ca^2+ levels, there is a compensatory hyperplasia of the parathyroid glands and elevated levels of circulating PTH. Male Sprague-Dawley rats (250 g) received a 5/6 nephrectomy and were allowed to recover for 2 weeks. At this time they were normocalcemic (due to elevated levels of serum PTH).

[4] = Serum ionized Ca2+ in parathyroidectomized rats; assay type: in vivo
Source text: To determine the primary target tissue upon which NPS 467 acts to cause a hypocalcemic response, the para thyroid glands in rats were surgically removed.

[5] = Net positive charge of the molecule; assay type: physicochemical
[6] = system: rMTC 6-23 cells; experiment: Measurement of cytosolic Ca2+ in C-cells (fura-2); assay type: cell-based, rat; details: for EC50: read-out: EC50 (C-CELL)
[7] = system: human parathyroid cells; experiment: Measurement of [Ca2+]i (fura-2) in human parathyroid cells; assay type: cell-based
[8] = molecular target: T1, Ca^2+ receptor (Homo sapiens, UniProt P41180); experiment: Cl- current in Xenopus oocytes injected with human parathyroid cell mRNA; assay type: cell-based; details: oocytes injected with mRNA from human parathyroid cells
T1 construct: Oocytes were injected with poly(A)^+-enriched mRNA from human parathyroid tissue; expressed in transfected cells; host or cells: Xenopus laevis oocytes injected with poly(A)+ mRNA from human hyperplastic parathyroid glands (secondary HPT)
T1 sequence (P41180 20-1078): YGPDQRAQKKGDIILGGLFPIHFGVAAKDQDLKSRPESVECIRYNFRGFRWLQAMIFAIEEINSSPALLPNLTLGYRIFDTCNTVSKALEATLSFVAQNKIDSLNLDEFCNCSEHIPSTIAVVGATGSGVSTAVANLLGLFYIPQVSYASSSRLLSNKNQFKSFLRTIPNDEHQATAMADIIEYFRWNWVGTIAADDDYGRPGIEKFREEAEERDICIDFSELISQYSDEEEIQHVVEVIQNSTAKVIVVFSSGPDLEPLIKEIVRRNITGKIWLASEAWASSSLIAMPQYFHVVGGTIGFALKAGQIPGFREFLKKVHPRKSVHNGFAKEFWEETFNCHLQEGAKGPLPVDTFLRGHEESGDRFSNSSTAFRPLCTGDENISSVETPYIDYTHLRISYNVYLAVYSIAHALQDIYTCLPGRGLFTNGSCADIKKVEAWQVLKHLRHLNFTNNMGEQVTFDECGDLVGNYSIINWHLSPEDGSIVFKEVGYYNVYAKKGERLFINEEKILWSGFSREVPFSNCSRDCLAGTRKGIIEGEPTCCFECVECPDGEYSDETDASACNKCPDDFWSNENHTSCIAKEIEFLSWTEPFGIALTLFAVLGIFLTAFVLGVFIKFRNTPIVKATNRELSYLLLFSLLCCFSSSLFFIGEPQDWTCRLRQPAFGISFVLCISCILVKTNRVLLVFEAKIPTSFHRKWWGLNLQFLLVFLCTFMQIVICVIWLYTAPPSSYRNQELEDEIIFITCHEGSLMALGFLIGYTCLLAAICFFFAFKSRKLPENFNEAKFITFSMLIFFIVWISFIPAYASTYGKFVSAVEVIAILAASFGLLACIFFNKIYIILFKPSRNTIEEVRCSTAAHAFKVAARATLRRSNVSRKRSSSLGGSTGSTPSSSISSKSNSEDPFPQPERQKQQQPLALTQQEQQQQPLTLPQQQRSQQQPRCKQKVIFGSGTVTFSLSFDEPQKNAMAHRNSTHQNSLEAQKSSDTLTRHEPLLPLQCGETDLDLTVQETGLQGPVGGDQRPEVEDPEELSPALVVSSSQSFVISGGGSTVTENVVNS

[9] = rat osteoclasts, indo-1, "inactive" = no increase in cytosolic Ca2+ at 1 mM or 1-5 mM (footnote)
[10] = rMTC 6-23 cells, fura-2, "inactive" = no increase in cytosolic Ca2+ at 1 mM or 1-5 mM (footnote)

Compound: COc1cccc(C(C)NCCCc2ccccc2)c1 (racemic) [NPS 467]
return of hypocalcemic effect toward control ([1]; 25 mg/kg (Fig. 40)): returned toward control levels after 24 hours
time of maximal hypocalcemic effect ([1]; 25 mg/kg (Fig. 40)): maximal within three hours
serum albumin or phosphate levels ([1]; any of the doses examined): no change
circulating levels of PTH ([1]; doses effective in lowering blood Ca2+, preliminary studies): dose-dependent reduction
serum or whole blood Ca^2+ ([1]; i.p., low calcium diet, three hours after administration): dose-dependent reduction

EC50 [2, 9]: > 100 µM
Compound: COc1cccc([C@@H](C)NCCCc2ccccc2)c1 (single isomer, unassigned) [NPS R-467]
time to fall in serum ionized Ca^2+ [3]: ≤ 2 h
serum ionized Ca^2+ levels, % of controls ([3]; 5/6 nephrectomized rats, 2 weeks after surgery): 83 % of controls
change in serum ionized Ca^2+ levels ([4]; 10 mg/kg i.p., single dose, over 6 hours): did not cause any change
decrease in serum ionized Ca^2+ from the control level ([1]; 10 mg/kg i.p., single dose, rats on normal calcium-replete diet, at maximum): 22%
time serum ionized Ca^2+ remained depressed ([1]; 10 mg/kg i.p., normal diet): up to 6 hours
time to maximal fall in serum ionized Ca^2+ ([1]; 10 mg/kg i.p., normal diet): ≤ 1 h
potency in lowering serum Ca^2+ in vivo, R- versus S-isomer ([1]; each compound at 5 mg/kg body weight): more potent than the S-isomer
serum levels of ionized Ca^2+ after oral dosing ([1]; single oral dose in corn oil by gavage, three hours, fasted rats): dose-dependent reduction

Net (+) Charge ([5]; at physiological pH (pH 7.3)): +2
Compound: NCCCCCCCCCCCCN [1,12-diaminododecane (DADD), 1,12-diaminododecane]

Compound: NC(=O)C[C@H](NC(=O)Cc1c[nH]c2cccc(O)c12)C(=O)NCCCCCNCCCNCCCNC(=O)[C@@H](N)CCCN=C(N)N [Argiotoxin-659]
Net (+) Charge ([5]; at physiological pH (pH 7.3)): +4

Compound: NCCCNCCCCNCCCNCCCN(O)CCCNC(=O)Cc1c[nH]c2cccc(O)c12 [NPS 015]
EC50 (C-CELL) [6, 10]: inactive
IC50 ([6]; read-out: IC50 for block of extracellular Ca^2+-induced increases in [Ca^2+]i, rMTC cells, block of the L-type voltage-sensitive Ca2+ channel): 3 µM

Compound: NCCCNCCCCNCCCNCCCN(O)CCCNC(=O)Cc1c[nH]c2ccccc12 [NPS 017]
EC50 (OSTEOCLAST) [2, 9]: inactive

Compound: NCCCNCCCCNCCCNCCCNCCCNC(=O)Cc1c[nH]c2ccccc12 [NPS 019]
EC50 [6, 10]: 5 µM

Net (+) Charge ([5]; at physiological pH (pH 7.3)): +10
Compound: NCCCN(CCCN)CCCN(CCCN)CCCCN(CCCN)CCCN(CCCN)CCCN [NPS 381, N^1,N^1,N^5,N^10,N^14,N^14-hexakis-(3-aminopropyl) spermine]

Net (+) Charge ([5]; at physiological pH (pH 7.3)): +8
Compound: NCCCN1CCCN(CCCN)CCN(CCCN)CCCN(CCCN)CC1 [NPS 383]

Compound: COc1cccc([C@@H](C)NCCCc2ccccc2Cl)c1 [NPS R-568]
EC50 [2, 9]: 200 µM
hypocalcemic response in parathyroidectomized rats ([4]; oral administration): fails to elicit a hypocalcemic response
EC50 ([6]; Rattus norvegicus, rMTC 6-23 cells, fura-2, "inactive" = no increase in cytosolic Ca2+ at 1 mM or 1-5 mM (footnote)): > 300 µM
ED50 ([1]; Rattus norvegicus, read-out: ED50 for decrease in the levels of serum Ca^2+, oral administration to rats): 7 mg/kg
EC50 ([7]; read-out: EC50 for the mobilization of intracellular Ca^2+ / increase in [Ca^2+]i, human parathyroid cells (adenoma)): 3 µM

Net (+) Charge ([5]; at physiological pH (pH 7.3)): +5
Compound: NCCNCCNCCNCCN [Tetraethylenepentamine (TEPA), Tetraethylenepentamine]

Net (+) Charge ([5]; at physiological pH (pH 7.3)): +4
Compound: NCCNCCNCCN [Triethylenetramine (TETA), triethylenetetramine]

Net (+) Charge ([5]; at physiological pH (pH 7.3)): +5
Compound: NC[C@H]1O[C@H](O[C@H]2[C@H](O)[C@@H](O[C@H]3O[C@H](CO)[C@@H](O)[C@H](N)[C@H]3O)[C@H](N)C[C@@H]2N)[C@H](N)[C@@H](O)[C@@H]1O [bekanamycin]

concentration causing the mobilization of intracellular Ca^2+ in oocytes [8]: 135 µM
Net (+) Charge ([5]; at physiological pH (pH 7.3)): +6
Compound: C1CNCCNCCNCCNCCNCCN1 [hexacyclen, 1,4,7,10,13,16-hexaaza-cyclooctadecane]

Net (+) Charge ([5]; at physiological pH (pH 7.3)): +1
Compound: CCC[C@@H]1C[C@@H](C(=O)N[C@@H]([C@H]2O[C@H](SC)[C@H](O)[C@@H](O)[C@H]2O)[C@@H](C)O)N(C)C1 [lincomycin]

Net (+) Charge ([5]; at physiological pH (pH 7.3)): +3
Compound: NCCCCNCCCN [spermidine]
increase in [Ca^2+]i, % of that evoked by a maximal concentration of extracellular Ca^2+ ([2]; 1 mM): about 10%

Compound: NCCCNCCCCNCCCN [spermine]
effect on the response to subsequent extracellular Ca^2+ ([2]; neomycin 10 mM (25 mM extracellular Ca2+), spermine 20 mM, verapamil 100 µM): did depress the response to extracellular Ca^2+
increases in [Ca^2+]i in rat osteoclasts ([2]; neomycin 10 mM, spermine 10 or 20 mM): Neither neomycin (10 mM) nor spermine (10 or 20 mM) caused increases
increase in [Ca^2+]i in osteoclasts ([2]; neomycin B 1 mM, spermine 1 or 5 mM): failed to evoke any increase in [Ca^2+]i
effect on basal [Ca^2+]i ([6]; spermine 10 mM, neomycin B 5 mM): without effect
increase in [Ca^2+]i ([7]; 300 µM): only a small increase in [Ca^2+]i

Net (+) Charge ([5]; at physiological pH (pH 7.3)): +3
Compound: [H]/N=C(/N)N[C@H]1[C@H](O)[C@@H](O)[C@H](O[C@@H]2O[C@@H](C)[C@](O)(C=O)[C@H]2O[C@@H]2O[C@@H](CO)[C@H](O)[C@@H](O)[C@@H]2NC)[C@@H](N/C(N)=N\[H])[C@@H]1O [streptomycin]

Compound: COc1ccc(CCN(C)CCCC(C#N)(c2ccc(OC)c(OC)c2)C(C)C)cc1OC (stereo not drawn) [verapamil]
increase in [Ca^2+]i ([2]; 100 µM): caused no detectable increase in [Ca^2+]i

Compound: N^1,N^1,N^5,N^14,N^14-tetrakis-(3-aminopropyl)spermine [NPS 382]
concentration causing the mobilization of intracellular Ca^2+ in oocytes [8]: 5000 µM
Net (+) Charge ([5]; pH 7.3): +8

Net (+) Charge ([5]; at physiological pH (pH 7.3)): +5
Compound: gentamicin
